Assay: xn = mol fraction of the nth substance listed

CC[n+]1ccccc1.[Cl-] + CCCC[n+]1ccccc1.[Br-]
viscosity [mPa·s], 101 kPa
Settings | x1 = 0.118 | x1 = 0.197 | x1 = 0.318 | x1 = 0.384 | x1 = 0.492 | x1 = 0.585 | x1 = 0.686 | x1 = 0.81 | x1 = 0.902
373.1 K | – | – | – | 61 | 54.1 | 48.8 | 43.7 | 38 | –
378.1 K | – | – | 53.6 | 50.2 | 44.7 | 40.6 | 36.5 | 32 | –
383.1 K | 53.8 | 49.7 | 44 | 41.4 | 37.1 | 33.8 | 30.6 | 27.1 | –
388.1 K | 44 | 40.8 | 36.4 | 34.3 | 31 | 28.4 | 25.8 | 23 | 20.9
393.1 K | 36.2 | 33.7 | 30.3 | 28.6 | 26 | 24 | 21.9 | 19.7 | 18
398.1 K | 30 | 28.1 | 25.4 | 24.1 | 22 | 20.4 | 18.8 | 17 | 15.59
403.1 K | 25.1 | 23.6 | 21.5 | 20.5 | 18.8 | 17.5 | 16.19 | 14.73 | 13.59
408.1 K | 21.2 | 20.1 | 18.4 | 17.5 | 16.2 | 15.19 | 14.08 | 12.9 | 11.96
413.1 K | 18.2 | 17.2 | 15.87 | 15.16 | 14.1 | 13.27 | 12.36 | 11.39 | 10.58
418.1 K | 15.69 | 14.92 | 13.82 | 13.25 | 12.37 | 11.7 | 10.93 | 10.12 | 9.43
423.1 K | 13.69 | 13.06 | 12.15 | 11.69 | 10.96 | 10.4 | 9.75 | 9.08 | 8.49
428.1 K | 12.07 | 11.55 | 10.79 | 10.4 | 9.79 | 9.32 | 8.77 | 8.21 | 7.68
433.1 K | 10.76 | 10.32 | 9.68 | 9.35 | 8.83 | 8.44 | 7.96 | 7.48 | 7.02
438.1 K | 9.69 | 9.31 | 8.77 | 8.48 | 8.04 | 7.7 | 7.29 | 6.88 | 6.46
443.1 K | 8.82 | 8.5 | 8.03 | 7.78 | 7.39 | 7.11 | 6.74 | 6.38 | 6

CC[n+]1ccccc1.[Cl-] + CCCC[n+]1ccccc1.[Cl-]
101 kPa
Settings | viscosity [mPa·s]
388.1 K, x1 = 0.804 | 23.2
393.1 K, x1 = 0.504 | 27.4
393.1 K, x1 = 0.804 | 19.8
398.1 K, x1 = 0.504 | 23.4
398.1 K, x1 = 0.702 | 18.5
398.1 K, x1 = 0.804 | 17
403.1 K, x1 = 0.804 | 14.67
408.1 K, x1 = 0.198 | 22.8
413.1 K, x1 = 0.198 | 19.7
413.1 K, x1 = 0.795 | 11.06
418.1 K, x1 = 0.504 | 13.42
423.1 K, x1 = 0.388 | 12.25
428.1 K, x1 = 0.702 | 8.33
428.1 K, x1 = 0.795 | 7.76
433.1 K, x1 = 0.597 | 8.38
438.1 K, x1 = 0.302 | 9.51
438.1 K, x1 = 0.702 | 6.8
443.1 K, x1 = 0.504 | 8.1
443.1 K, x1 = 0.804 | 6.06

CO + CCCC[n+]1ccn(C)c1.F[B-](F)(F)F
101 kPa, x1 = 1
Settings | viscosity [mPa·s]
303.15 K | 0.519
333.15 K | 0.363

ClCCl + CCCC[n+]1ccn(C)c1.F[B-](F)(F)F
298.15 K
Settings | electrical conductivity, 101 kPa [S/m] | viscosity, 101 kPa [mPa·s] | viscosity, 101.33 kPa [mPa·s]
x1 = 0.1 | 0.265 | 85 | –
x1 = 0.1923 | 0.348 | 63.1 | –
x1 = 0.2841 | 0.45 | 46.1 | –
x1 = 0.3884 | 0.592 | 31.2 | –
x1 = 0.4507 | – | – | 14.3
x1 = 0.4878 | 0.772 | 20 | –
x1 = 0.5882 | 0.99 | 12.3 | –
x1 = 0.6897 | 1.18 | 6.73 | –
x1 = 0.756 | 1.26 | 4 | –
x1 = 0.8395 | 1.18 | 1.96 | –

ClCCl + CCCC[n+]1ccn(C)c1.F[P-](F)(F)(F)(F)F
298.15 K, 101 kPa
Settings | electrical conductivity [S/m] | viscosity [mPa·s]
x1 = 0.2451 | 0.394 | 89
x1 = 0.4351 | 0.731 | 34.7

c1ccccc1 + CCCC[n+]1ccn(C)c1.N#C[S-]
100 kPa, x1 = 1
Settings | viscosity [mPa·s]
298.15 K | 0.605
308.15 K | 0.527
318.15 K | 0.466
328.15 K | 0.363

CO + CCCC[n+]1ccn(C)c1.O=S(=O)([N-]S(=O)(=O)C(F)(F)F)C(F)(F)F
Settings | viscosity [mPa·s]
298 K, 100 kPa, x2 = 0 | 0.534

ClCCl + CCCC[n+]1ccn(C)c1.O=S(=O)([N-]S(=O)(=O)C(F)(F)F)C(F)(F)F
298 K, 101 kPa
Settings | electrical conductivity [S/m]
x1 = 0.8744 | 1.36
x1 = 0.9287 | 0.98
x1 = 0.9459 | 0.797

c1ccccc1 + CCCC[n+]1ccn(C)c1.O=S(=O)([O-])C(F)(F)F
100 kPa, x1 = 1
Settings | viscosity [mPa·s]
308.15 K | 0.527
318.15 K | 0.466

CO + CCCC[n+]1ccn(C)c1.[Cl-]
Settings | viscosity [mPa·s]
308.15 K, 101 kPa, x1 = 1 | 0.49

C=CC[n+]1ccn(C)c1.O=S(=O)([N-]S(=O)(=O)C(F)(F)F)C(F)(F)F + CCCO
298.15 K, 100 kPa
Settings | viscosity [mPa·s]
x1 = 0.2 | 5.11
x1 = 0.5 | 10.41
x1 = 0.7 | 16.23
x1 = 0.8 | 20.34
x1 = 0.9 | 25.56

CC(O)C(=O)[O-].C[N+](C)(C)CCO + CCCO + O
100 kPa, x1 = 0.00408, x2 = 0.5431
Settings | viscosity [mPa·s]
288.15 K | 3.551
298.15 K | 2.585
308.15 K | 1.943

CC(O)C(=O)[O-].C[N+](C)(C)CCO + CCO
101 kPa
Settings | viscosity [mPa·s]
293.15 K, x2 = 0.2996 | 225.4
293.15 K, x2 = 0.7013 | 17.75
293.15 K, x2 = 0.7987 | 8.579
298.15 K, x2 = 0.7987 | 7.357
303.15 K, x2 = 0.601 | 25.96
303.15 K, x2 = 0.8996 | 2.853
308.15 K, x2 = 0.2011 | 144.8
318.15 K, x2 = 0 | 158.7
318.15 K, x2 = 0.601 | 15.05
323.15 K, x2 = 0.1039 | 91.6
323.15 K, x2 = 0.5003 | 20.51
323.15 K, x2 = 0.7987 | 3.792
328.15 K, x2 = 0.1039 | 72.67
328.15 K, x2 = 0.601 | 11.1
328.15 K, x2 = 0.7987 | 3.387
333.15 K, x2 = 0.1039 | 58.6
333.15 K, x2 = 0.601 | 9.667
338.15 K, x2 = 0.3999 | 19.08

CCCC[n+]1ccn(C)c1.[I-] + CCO
298.15 K, 100 kPa
Settings | electrical conductivity [S/m]
x1 = 0.009029 | 0.254
x1 = 0.1006 | 1.47
x1 = 0.2076 | 1.74

CC[n+]1ccn(C)c1.COP(=O)([O-])OC + CCO
Settings | viscosity [mPa·s]
293.15 K, 100 kPa, x1 = 0.7006 | 121.4
298.15 K, 100 kPa, x1 = 0.5013 | 37.58
298.15 K, 100 kPa, x1 = 0.7006 | 95.5
298.15 K, 100 kPa, x1 = 0.8011 | 141.3
298.15 K, 101 kPa, x2 = 0.398 | 68.8
298.15 K, 101 kPa, x2 = 0.598 | 23.29
303.15 K, 100 kPa, x1 = 0.3007 | 10.67
303.15 K, 100 kPa, x1 = 0.5994 | 48.5
303.15 K, 101 kPa, x2 = 0.398 | 55.24
308.15 K, 100 kPa, x1 = 1 | 134.2
308.15 K, 101 kPa, x2 = 0.798 | 4.904
313.15 K, 100 kPa, x1 = 0.3007 | 8.34
313.15 K, 100 kPa, x1 = 0.5994 | 31.82
313.15 K, 100 kPa, x1 = 1 | 102.6
318.15 K, 100 kPa, x1 = 0.3007 | 7.45
318.15 K, 101 kPa, x2 = 0.398 | 31.25
318.15 K, 101 kPa, x2 = 0.598 | 12.92
323.15 K, 100 kPa, x1 = 0.5013 | 15.7
323.15 K, 100 kPa, x1 = 0.8011 | 38.59
328.15 K, 100 kPa, x1 = 0.7006 | 25.53
328.15 K, 101 kPa, x2 = 0.199 | 38.21
333.15 K, 100 kPa, x1 = 0.1004 | 1.71
333.15 K, 100 kPa, x1 = 0.7006 | 21.5
333.15 K, 100 kPa, x1 = 1 | 41.05
338.15 K, 100 kPa, x1 = 0.8988 | 26.44
